Source: patent EP4711369A1, “1H-[1,2,3]TRIAZOLO[4,5-H]QUINAZOLINE COMPOUNDS AS PROTEIN KINASE INHIBITORS” (Chengdu Cynogen Bio-Pharmaceutical Technology Co., Ltd., priority 2023, dated 2024)

Legend:
[1] = system: Human ovarian cancer OVCAR3 cells; test: Assay of cell proliferation (CellTiter-Glo); format: cell-based; conditions: Homo sapiens, OVCAR-3, 144 h, 6 days, read-out: OVCAR3 IC50 of cell proliferation inhibitory activity
Protocol: (§1) Human ovarian cancer OVCAR3 cells were inoculated at 2000 cells/well in a 96-well plate and cultured in RPMI 1640 medium containing 20% FBS at 37 °C and 5% CO2 overnight in an incubator. The next day, the compounds were subjected to a three-fold gradient dilution in DMSO from a peak concentration of 2 mM to give nine concentrations. Then, the compounds were diluted 3:200 in growth medium, and finally diluted 1:3 in the cell culture supernatant to give a culture supernatant containing 0.5% DMSO, with the compounds treatment concentrations ranging from 10 µM to 0.1 nM. The cells and the compounds were incubated at 37 °C and 5% CO2 for 6 days. Then, cell proliferation assay was performed using the CellTiter-Glo (manufacturer: Promega, Cat. No. G9242), and luminescence signals were read using a multifunctional microplate reader (model: Synergy H1, manufacturer: BiotTek). IC50 values were calculated by fitting of the concentration-response curves with a four-parameter analysis method using GraphPad Prism software.

[2] = system: human acute myeloid leukemia MV-4-11 cells; test: Assay of cell proliferation (CellTiter-Glo); format: cell-based; conditions: MV4-11, 144 h, 6 days, read-out: MV-4-11 IC50 of cell proliferation inhibitory activity
Protocol: as §1
(§2) The cell proliferation assays of human colon cancer HCT-116 cells, human breast cancer MCF-7 cells, human breast cancer HCC1806 cells, human acute myeloid leukemia MV-4-11 cells, and human gastric cancer MKN1 cells were performed according to the same method, with different inoculation densities set according to different cell growth characteristics.

[3] = system: human breast cancer HCC1806 cells; test: Assay of cell proliferation (CellTiter-Glo); format: cell-based; conditions: Homo sapiens, 144 h, 6 days, read-out: HCC1806 IC50 of cell proliferation inhibitory activity
Protocol: as §1, §2

[4] = system: human gastric cancer MKN1 cells; test: Assay of cell proliferation (CellTiter-Glo); format: cell-based; conditions: Homo sapiens, MKN-1, 144 h; MNK1, 6 days; read-out: MKN1 IC50 of cell proliferation inhibitory activity
Protocol: as §1, §2

CDK6/cyclin D3 = CDK6/cyclin D3 (Homo sapiens, UniProt Q00534); test: Assay of kinase activity (ADP-Glo); format: biochemical; conditions: kinase inhibitory activity
Chain of CDK6/cyclin D3 (Q00534 whole entry, species assumed): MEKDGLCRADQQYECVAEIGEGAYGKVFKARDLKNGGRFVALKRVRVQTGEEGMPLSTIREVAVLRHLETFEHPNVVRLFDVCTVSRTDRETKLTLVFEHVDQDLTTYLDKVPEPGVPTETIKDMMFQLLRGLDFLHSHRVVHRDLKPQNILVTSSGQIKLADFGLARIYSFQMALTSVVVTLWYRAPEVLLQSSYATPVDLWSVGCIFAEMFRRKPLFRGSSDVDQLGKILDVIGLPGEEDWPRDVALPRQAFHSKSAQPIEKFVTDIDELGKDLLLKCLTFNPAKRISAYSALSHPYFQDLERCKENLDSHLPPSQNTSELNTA
Chain of CDK6/cyclin D3 (P30281 whole entry partner, species assumed): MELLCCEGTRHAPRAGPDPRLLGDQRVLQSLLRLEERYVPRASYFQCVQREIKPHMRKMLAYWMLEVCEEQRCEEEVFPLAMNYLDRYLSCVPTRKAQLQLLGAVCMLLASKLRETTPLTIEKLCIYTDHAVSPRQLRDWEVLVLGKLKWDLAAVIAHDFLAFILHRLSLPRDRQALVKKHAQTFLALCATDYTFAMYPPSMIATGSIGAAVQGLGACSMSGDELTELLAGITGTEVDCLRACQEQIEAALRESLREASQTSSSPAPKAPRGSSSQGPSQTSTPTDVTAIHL
Protocol: (§3) CDK/cyclin catalyzes the phosphorylation of a substrate, which concomitantly consumes ATP and produces ADP. The inhibition rate (%) in the presence of a small molecule inhibitor was assessed by measuring the amount of ADP generated in the reaction. The assay compounds were thoroughly mixed by vortexing and then diluted in DMSO to 100× the assay concentration. 40 nL of a compound was transferred to a 384-well assay plate using a nanoliter pipetting system (ECHO® 655 SYSTEM). A 2× kinase solution was prepared using a 1× kinase reaction buffer (50 mM Hepes, 10 mM MgCl2, 0.01% Brij35, 2 mM DTT). 2 µL of the kinase solution was transferred to the 384-well assay plate, and the plate was centrifuged at 1000 rpm for 60 seconds in a microplate centrifuge. The plate was incubated at 25 °C in a biochemical incubator for 10 minutes. A 2x mixture of substrate and ATP was prepared in the kinase reaction buffer. Then, 2 µL of the mixture of substrate and ATP was added to the 384-well assay plate. The plate was centrifuged at 1000 rpm for 60 seconds in a microplate centrifuge, and incubated at 25 °C in a biochemical incubator for 60 minutes. 4 µL of ADP-Glo Reagent (Cat. No. V9103, manufacturer: Promega) incubated at 25 °C in a biochemical incubator was added to each well of the 384-well assay plate. The plate was centrifuged at 1000 rpm for 60 seconds in a microplate centrifuge, and incubated at 25 °C in a biochemical incubator for 40 minutes. 8 µL of Detection Reagent incubated at 25 °C in a biochemical incubator was added to each well of the 384-well assay plate. The plate was centrifuged at 1000 rpm for 60 seconds in a microplate centrifuge, and incubated at 25 °C in a biochemical incubator for 40 minutes. Finally, luminescence signals were read using a multifunctional microplate reader (model: PHERAstar FSX, manufacturer: BMG). IC50 values were calculated by nonlinear fitting of the concentration-response curves using GraphPad Prism software.

CDK4/cyclin D1 = CDK4/cyclin D1 (Homo sapiens, UniProt P11802); test: Assay of kinase activity (ADP-Glo); format: biochemical; conditions: kinase inhibitory activity
Chain of CDK4/cyclin D1 (P11802 whole entry, species assumed): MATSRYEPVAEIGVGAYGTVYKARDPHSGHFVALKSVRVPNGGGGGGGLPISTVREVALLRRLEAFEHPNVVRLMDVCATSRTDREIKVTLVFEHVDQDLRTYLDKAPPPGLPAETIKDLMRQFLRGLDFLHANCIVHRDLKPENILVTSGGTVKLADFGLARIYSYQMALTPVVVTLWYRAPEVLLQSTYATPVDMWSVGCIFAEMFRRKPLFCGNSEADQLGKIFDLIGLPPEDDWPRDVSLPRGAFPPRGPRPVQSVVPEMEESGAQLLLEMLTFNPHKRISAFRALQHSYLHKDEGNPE
Chain of CDK4/cyclin D1 (P24385 whole entry partner, species assumed): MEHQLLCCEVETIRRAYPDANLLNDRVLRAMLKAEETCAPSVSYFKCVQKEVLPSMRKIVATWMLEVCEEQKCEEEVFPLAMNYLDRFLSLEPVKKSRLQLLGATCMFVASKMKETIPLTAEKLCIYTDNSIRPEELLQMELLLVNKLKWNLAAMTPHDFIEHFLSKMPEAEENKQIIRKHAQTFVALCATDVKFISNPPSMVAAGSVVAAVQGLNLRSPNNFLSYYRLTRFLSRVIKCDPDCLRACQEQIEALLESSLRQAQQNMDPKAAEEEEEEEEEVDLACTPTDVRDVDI
Protocol: as §3, with “40 nL of a compound was transferred to a 384-well assay plate using a nanoliter pipetting system (ECHO® 655 SYSTEM).” left out

CDK2/cyclin E = CDK2/cyclin E (Homo sapiens, UniProt P24941); test: Assay of kinase activity (ADP-Glo); format: biochemical; conditions: kinase inhibitory activity, read-out: CDK2/E1 IC50
Protocol: as §3, with “40 nL of a compound was transferred to a 384-well assay plate using a nanoliter pipetting system (ECHO® 655 SYSTEM).” left out

CDK9/cyclin T1 = CDK9/cyclin T1 (Homo sapiens, UniProt P50750); test: Assay of kinase activity (ADP-Glo); format: biochemical; conditions: kinase inhibitory activity
Chain of CDK9/cyclin T1 (P50750 whole entry, species assumed): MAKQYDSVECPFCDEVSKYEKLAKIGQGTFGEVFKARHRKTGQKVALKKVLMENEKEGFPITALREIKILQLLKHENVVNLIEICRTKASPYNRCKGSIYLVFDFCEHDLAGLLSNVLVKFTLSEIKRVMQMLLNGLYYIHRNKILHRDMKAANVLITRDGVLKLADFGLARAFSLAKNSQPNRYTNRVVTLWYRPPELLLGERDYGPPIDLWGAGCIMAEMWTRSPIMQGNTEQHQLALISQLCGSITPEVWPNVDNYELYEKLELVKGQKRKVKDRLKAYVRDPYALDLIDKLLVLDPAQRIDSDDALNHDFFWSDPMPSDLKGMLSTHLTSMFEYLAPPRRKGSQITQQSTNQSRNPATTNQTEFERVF
Chain of CDK9/cyclin T1 (O60563 whole entry partner, species assumed): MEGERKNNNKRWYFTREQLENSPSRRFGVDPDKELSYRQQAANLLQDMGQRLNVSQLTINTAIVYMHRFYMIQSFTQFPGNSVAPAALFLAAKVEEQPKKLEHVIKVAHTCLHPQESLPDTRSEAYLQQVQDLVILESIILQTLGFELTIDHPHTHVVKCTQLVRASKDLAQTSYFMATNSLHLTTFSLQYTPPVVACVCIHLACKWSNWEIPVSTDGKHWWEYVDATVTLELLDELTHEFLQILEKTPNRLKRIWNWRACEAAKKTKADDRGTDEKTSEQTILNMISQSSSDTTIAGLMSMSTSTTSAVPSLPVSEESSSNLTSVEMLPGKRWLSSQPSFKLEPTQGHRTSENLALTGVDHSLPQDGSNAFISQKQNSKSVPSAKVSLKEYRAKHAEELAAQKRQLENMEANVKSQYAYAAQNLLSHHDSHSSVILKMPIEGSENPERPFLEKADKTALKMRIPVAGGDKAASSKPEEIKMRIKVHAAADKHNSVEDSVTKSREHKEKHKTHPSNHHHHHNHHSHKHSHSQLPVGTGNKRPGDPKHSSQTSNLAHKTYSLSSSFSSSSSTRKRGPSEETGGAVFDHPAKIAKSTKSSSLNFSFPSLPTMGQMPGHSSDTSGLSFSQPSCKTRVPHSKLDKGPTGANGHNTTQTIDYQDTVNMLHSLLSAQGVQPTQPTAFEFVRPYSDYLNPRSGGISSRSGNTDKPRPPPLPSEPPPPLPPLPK
Protocol: as §3

| Structure (SMILES) | IC50 [1] [nM] | IC50 [2] [nM] | IC50 [3] [nM] | IC50 [4] [nM] | IC50 (CDK6/cyclin D3) [nM] | IC50 (CDK4/cyclin D1) [nM] | IC50 (CDK2/cyclin E) [nM] | IC50 (CDK9/cyclin T1) [nM] |
| --- | --- | --- | --- | --- | --- | --- | --- | --- |
| CC(C)n1nnc2ccc3cnc(Nc4ccc(C(=O)N5CCN(C)[C@H](C)C5)cc4)nc3c21 [Example I-27, (R)-(3,4-Dimethylpiperazin-1-yl)(4-((1-isopropyl-1H-[1,2,3]triazolo[4,5-H]quinazolin-8-yl)amino)phenyl)metha none] | 69 | 6 | 186 | 32 | 14 | 5 | 2 | – |
| CC(C)n1nnc2ccc3cnc(Nc4ccc(C(=O)N5CC[C@@H](O)[C@H](N)C5)cc4)nc3c21 [Example I-13, ((3R,4R)-3-Amino-4-hydroxypiperidin-1-yl)(4-((1-isopropyl-1H-[1,2,3]triazolo[4,5-H]quinazolin-8-yl)amino)phenyl)metha none] | 156 | 4 | 330 | 252 | 29 | 4 | 0.8 | – |
| CC(C)n1nnc2ccc3cnc(Nc4ccc(C(=O)N5CCN(C)CC5)c(F)c4)nc3c21 [Example I-26, (2-Fluoro-4-((1-isopropyl-1H-[1,2,3]triazolo[4,5-H]quinazolin-8-yl)amino)phenyl)(4-methylpiperazin-1-yl)methanone] | 45 | – | 436 | 41 | 19 | 4 | 1 | 16 |
| C[C@H](CO)n1nnc2ccc3cnc(Nc4ccc(C(=O)N5CCNCC5)cc4)nc3c21 [Example I-50, (R)-(4-((1-(1-Hydroxypropan-2-yl)-1H-[1,2,3]triazolo[4,5-H]quinazolin-8-yl)amino)phenyl)(piperazin-1-yl)methanone] | 1310 | – | 1740 | 548 | 85 | 4 | 2 | 100 |
| CN1CCCN(C(=O)c2ccc(Nc3ncc4ccc5nnn(C6CCCC6)c5c4n3)cc2)CC1 [Example I-42, (4-((1-Cyclopentyl-1H-[1,2,3]triazolo[4,5-H]quinazolin-8-yl)amino)phenyl)(4-methyl-1,4-diazepan-1-yl)methanone] | 6 | – | 7 | 3 | 4 | 1 | 0.06 | 2 |
| CN[C@H]1CCN(C(=O)c2ccc(Nc3ncc4cc(C(F)F)c5nnn(C(C)C)c5c4n3)cc2)C1 [Example I-44, (S)-(4-((4-(difluoromethyl)-1-isopropyl-1H-[1,2,3]triazolo[4,5-H]quinazolin-8-yl)amino)phenyl)(3-(methylamino)pyrrolidin-1-yl)methanone] | 321 | – | 404 | 127 | 16 | 2 | 0.7 | 140 |
| CC(C)N1CCN(C(=O)c2ccc(Nc3ncc4ccc5nnn(C(C)C)c5c4n3)cc2)CC1 [Example I-30, (4-Isopropylpiperazin-1-yl)(4-((1-isopropyl-1H-[1,2,3]triazolo[4,5-H]quinazolin-8-yl)amino)phenyl)metha none] | 19 | – | 151 | 20 | 94 | 2 | 1 | 44 |
| N[C@H]1CCN(C(=O)c2ccc(Nc3ncc4ccc5nnn(C6CCCC6)c5c4n3)cc2)C1 [Example I-38, (S)-(3-Aminopyrrolidin-1-yl)(4-((1-cyclopentyl-1H-[1,2,3]triazolo[4,5-H]quinazolin-8-yl)amino)phenyl)methanone] | 8 | – | 13 | 1 | 3 | 0.5 | 0.05 | 4 |
| CN[C@H]1CCN(C(=O)c2ccc(Nc3ncc4ccc5nnn(C6CCCC6)c5c4n3)cc2)C1 [Example I-39, (S)-(4-((1-cyclopentyl-1H-[1,2,3]triazolo[4,5-H]quinazolin-8-yl)amino)phenyl)(3-(methylamino)pyrrolidin-1-yl)methanone] | 5 | – | 7 | 1 | 4 | 0.7 | 0.07 | 2 |
| CC(C)n1nnc2ccc3cnc(Nc4ccc(C(=O)N5CCN(CCCO)CC5)cc4)nc3c21 [Example I-31, (4-(3-Hydroxypropyl)piperazin-1-yl)(4-((1-isopropyl-1H-[1,2,3]triazolo[4,5-H]quinazolin-8-yl)amino)phenyl)metha none] | 193 | – | 273 | 67 | 89 | 8 | 7 | 380 |
| CN(C)[C@H]1CCN(C(=O)c2ccc(Nc3ncc4ccc5nnn(C6CCCC6)c5c4n3)cc2)C1 [Example I-40, (S)-(4-((1-cyclopentyl-1H-[1,2,3]triazolo[4,5-H]quinazolin-8-yl)amino)phenyl)(3-(dimethylamino)pyrrolidin-1-yl)methanone] | 10 | – | 16 | 5 | 3 | 0.7 | 0.06 | 2 |
| CC(C)n1nnc2c(C(F)F)cc3cnc(Nc4ccc(C(=O)N5CC[C@H](N(C)C)C5)cc4)nc3c21 [Example I-45, (S)-(4-((4-(Difluoromethyl)-1-isopropyl-1H-[1,2,3]triazolo[4,5-H]quinazolin-8-yl)amino)phenyl)(3-(dimethylamino)pyrrolidin-1-yl)methanone] | 359 | – | 476 | 241 | 36 | 3 | 0.8 | 144 |
| CC(C)n1nnc2c(C(F)F)cc3cnc(Nc4ccc(C(=O)N5CCCNCC5)cc4)nc3c21 [Example I-46] | 275 | – | 317 | 170 | 24 | 3 | 0.7 | 134 |
